Source: ChEMBL document CHEMBL1201862, “PubChem BioAssay data set” (2004)
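Protocol summary: plate cells (96-well), add compound at 5 concentrations, incubate 48 h, interpolate endpoints linearly. GI50: concentration for 50% inhibition of growth.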 Active and inactive are the calls of the source. Rule as the data show it: active = GI50 up to about 1.1 µM and inactive = higher.

Legend:
Test in all cases: inhibition of tumour cell growth, NCI panel, 48 h
SF-268 = tested on: SF-268
KM12 = tested on: KM12
NCI-H23 = tested on: NCI-H23
BT-549 = tested on: BT-549
HCT-15 = tested on: HCT-15
OVCAR-5 = tested on: OVCAR-5
COLO 205 = tested on: COLO 205
M14 = tested on: M14
RPMI-8226 = tested on: RPMI-8226
SNB-19 = tested on: SNB-19
Hs-578T = tested on: Hs-578T
786-0 = tested on: 786-0
HOP-92 = tested on: HOP-92
HL-60 = tested on: HL-60
U-251 = tested on: U-251
SW-620 = tested on: SW-620
OVCAR-4 = tested on: OVCAR-4
SN12C = tested on: SN12C
A549 = tested on: A549
DU-145 = tested on: DU-145
NCI/ADR-RES = tested on: NCI/ADR-RES
HCT-116 = tested on: HCT-116
UACC-257 = tested on: UACC-257
LOX IMVI = tested on: LOX IMVI
SR = tested on: SR
HT-29 = tested on: HT-29
NCI-H460 = tested on: NCI-H460
MDA-MB-231 = tested on: MDA-MB-231
IGROV-1 = tested on: IGROV-1
A498 = tested on: A498
MCF7 = tested on: MCF7
UACC-62 = tested on: UACC-62
MOLT-4 = tested on: MOLT-4
HCC 2998 = tested on: HCC 2998
CAKI-1 = tested on: CAKI-1
SK-MEL-5 = tested on: SK-MEL-5
SK-MEL-28 = tested on: SK-MEL-28
OVCAR-8 = tested on: OVCAR-8
Malme-3M = tested on: Malme-3M
HOP-62 = tested on: HOP-62
SF-295 = tested on: SF-295
CCRF-CEM = tested on: CCRF-CEM
PC-3 = tested on: PC-3
NCI-H522 = tested on: NCI-H522
NCI-H226 = tested on: NCI-H226
SF-539 = tested on: SF-539
SK-MEL-2 = tested on: SK-MEL-2
SK-OV-3 = tested on: SK-OV-3
MDA-MB-435 = tested on: MDA-MB-435
K562 = tested on: K562
ACHN = tested on: ACHN
TK-10 = tested on: TK-10
EKVX = tested on: EKVX

## Cc1ccc(N/C(Sc2ccccc2)=C(/C(Cl)=C(Cl)Cl)[N+](=O)[O-])c(C)c1
SF-268
  GI50: 14 µM (inactive)
KM12
  GI50: 17.3 µM (inactive)
NCI-H23
  GI50: 22.9 µM (inactive)
BT-549
  GI50: 15.5 µM (inactive)
HCT-15
  GI50: 16.8 µM
OVCAR-5
  GI50: 17.8 µM (inactive)
COLO 205
  GI50: 20.9 µM (inactive)
M14
  GI50: 21.5 µM (inactive)
RPMI-8226
  GI50: 20.3 µM (inactive)
SNB-19
  GI50: 22.3 µM (inactive)
Hs-578T
  GI50: 44.4 µM (inactive)
786-0
  GI50: 16.5 µM (inactive)
HOP-92
  GI50: 14 µM (inactive)
HL-60
  GI50: 18.2 µM (inactive)
U-251
  GI50: 13.8 µM (inactive)
SW-620
  GI50: 19.7 µM (inactive)
OVCAR-4
  GI50: 23.7 µM (inactive)
SN12C
  GI50: 18.4 µM (inactive)
A549
  GI50: 33.8 µM (inactive)
DU-145
  GI50: 36.1 µM (inactive)
NCI/ADR-RES
  GI50: 23.7 µM (inactive)
HCT-116
  GI50: 17.1 µM (inactive)
UACC-257
  GI50: 18.2 µM (inactive)
LOX IMVI
  GI50: 14.5 µM (inactive)
SR
  GI50: 23.3 µM (inactive)
HT-29
  GI50: 18.3 µM (inactive)
NCI-H460
  GI50: 16.8 µM (inactive)
MDA-MB-231
  GI50: 18.9 µM (inactive)
IGROV-1
  GI50: 19.5 µM (inactive)
A498
  GI50: 21.8 µM (inactive)
MCF7
  GI50: 14.4 µM (inactive)
UACC-62
  GI50: 30.6 µM (inactive)
MOLT-4
  GI50: 19.6 µM (inactive)
HCC 2998
  GI50: 17.7 µM (inactive)
CAKI-1
  GI50: 17 µM (inactive)
SK-MEL-5
  GI50: 25.1 µM (inactive)
SK-MEL-28
  GI50: 18.5 µM (inactive)
OVCAR-8
  GI50: 34.5 µM (inactive)
Malme-3M
  GI50: 17.5 µM (inactive)
HOP-62
  GI50: 23.8 µM (inactive)
SF-295
  GI50: 25.1 µM (inactive)
CCRF-CEM
  GI50: 17.9 µM (inactive)
PC-3
  GI50: 17.7 µM (inactive)
NCI-H522
  GI50: 17.8 µM (inactive)
NCI-H226
  GI50: 24.6 µM (inactive)
SF-539
  GI50: 21.7 µM (inactive)
SK-MEL-2
  GI50: 19.5 µM (inactive)
SK-OV-3
  GI50: 37.8 µM (inactive)
MDA-MB-435
  GI50: 14.4 µM (inactive)
K562
  GI50: 18 µM (inactive)
ACHN
  GI50: 32.8 µM (inactive)
TK-10
  GI50: 45.6 µM (inactive)
EKVX
  GI50: 22.1 µM (inactive)
